Read-outs that look alike come from different tables or passages of the source. Blank lines part the entries; values can stand above or below the compound they belong to.
Tests used:
[1] = molecular target: T1, human LPA2 receptor (Homo sapiens, UniProt Q9HBW0); experiment: Dynamic mass redistribution (DMR) assay in CHOLPA2 cells; settings: for DMR response: CHOLPA2 cells; for Shift of the concentration–response curve to LPA: antagonism protocol, 1 µM; for DMR effect per se: concentration–response up to highest concentration tested
T1 sequence (Q9HBW0 whole entry): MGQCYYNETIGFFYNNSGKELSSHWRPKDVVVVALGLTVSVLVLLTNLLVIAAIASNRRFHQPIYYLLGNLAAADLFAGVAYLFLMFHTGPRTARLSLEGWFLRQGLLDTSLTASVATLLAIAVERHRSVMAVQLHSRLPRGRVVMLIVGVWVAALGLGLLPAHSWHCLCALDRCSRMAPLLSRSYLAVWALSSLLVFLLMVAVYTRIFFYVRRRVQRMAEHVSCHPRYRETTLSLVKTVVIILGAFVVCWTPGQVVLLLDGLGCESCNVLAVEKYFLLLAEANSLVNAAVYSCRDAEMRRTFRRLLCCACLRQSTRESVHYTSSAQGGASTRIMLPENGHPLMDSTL
Experimental: Confluent cells were sub-cultured using trypsin/EDTA and used for experiments. Cells were seeded at a density of 20,000 cells/well in 30 µL into fibronectin-coated EnspireTM-LC 384-well plates and cultured for 20 h to form a confluent monolayer. On the day of the experiment, the cells were manually washed twice and maintained with assay buffer (HBSS with 20 mM HEPES, 0.01% BSA) for 90 min before DMR experiments. DMR was monitored in real time with a temporal resolution of 44 s throughout the assay. Experiments were performed at 37°C using an EnSight Multimode Plate Reader (PerkinElmer). The agonism protocol was as follows: before addition of the ligand, the DMR signal was measured for 5 min, and the average of the signals recorded during this period was set as the baseline (pm = 0). Compounds are added manually in a volume of 10 µL, and the triggered DMR signals were recorded for 60 min. […] Responses were described in the form of picometer shift over time (seconds) following the subtraction of values from vehicle-treated wells. Maximum picometer (pm) modification (peak) and area under the curve (AUC) were used to determine the agonist response.
All data were analyzed using GraphPad Prism 9.4 (La Jolla, CA, United States). Concentration–response curves were fitted using the four-parameter log-logistic equation. Data are expressed in the form mean ± s.e.m. across n experiments performed in duplicate. […] In practice, equiactive concentrations of the agonist in the absence ([A]) and presence ([A’]) of a non-competitive antagonist ([B]) were compared in a double reciprocal plot describing a straight line, and pKB was derived from the equation: pKB = log[(slope—1)/[B]]. […] Maximal effect data were analyzed using the Student’s t-test or a one-way ANOVA followed by Dunnett’s post-hoc test.

[2] = system: CHO wild-type cells; experiment: DMR assay in CHO wild-type cells (control); assay type: cell-based; settings: for DMR response: CHO cells
Experimental: Confluent cells were sub-cultured using trypsin/EDTA and used for experiments. Cells were seeded at a density of 20,000 cells/well in 30 µL into fibronectin-coated EnspireTM-LC 384-well plates and cultured for 20 h to form a confluent monolayer. On the day of the experiment, the cells were manually washed twice and maintained with assay buffer (HBSS with 20 mM HEPES, 0.01% BSA) for 90 min before DMR experiments. DMR was monitored in real time with a temporal resolution of 44 s throughout the assay. Experiments were performed at 37°C using an EnSight Multimode Plate Reader (PerkinElmer). The agonism protocol was as follows: before addition of the ligand, the DMR signal was measured for 5 min, and the average of the signals recorded during this period was set as the baseline (pm = 0). Compounds are added manually in a volume of 10 µL, and the triggered DMR signals were recorded for 60 min. The antagonism protocol was as follows: antagonists were added manually 25 min before reading the 5 min baseline. […] Responses were described in the form of picometer shift over time (seconds) following the subtraction of values from vehicle-treated wells. Maximum picometer (pm) modification (peak) and area under the curve (AUC) were used to determine the agonist response.

[3] = molecular target: T2, human LPA1 receptor (Homo sapiens, UniProt Q92633); experiment: Dynamic mass redistribution (DMR) assay in CHOLPA1 cells; settings: for DMR response: CHOLPA1 cells; for Shift of the concentration–response curve to LPA: antagonism protocol, 1 µM; for Agonism Emax: negative DMR signal
T2 sequence (Q92633 whole entry): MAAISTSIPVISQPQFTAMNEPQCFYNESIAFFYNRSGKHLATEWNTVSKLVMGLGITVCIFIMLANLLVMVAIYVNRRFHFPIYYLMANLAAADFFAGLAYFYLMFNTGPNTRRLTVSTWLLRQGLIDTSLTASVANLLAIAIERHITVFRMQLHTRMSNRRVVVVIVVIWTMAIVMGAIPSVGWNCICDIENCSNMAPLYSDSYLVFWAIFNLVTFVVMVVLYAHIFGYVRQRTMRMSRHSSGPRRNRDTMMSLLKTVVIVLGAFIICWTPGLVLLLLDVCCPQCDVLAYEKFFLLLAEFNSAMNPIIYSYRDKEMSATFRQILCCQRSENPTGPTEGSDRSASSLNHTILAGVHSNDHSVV
Experimental: All data were analyzed using GraphPad Prism 9.4 (La Jolla, CA, United States). Concentration–response curves were fitted using the four-parameter log-logistic equation. Data are expressed in the form mean ± s.e.m. across n experiments performed in duplicate. Agonist potency is expressed in the form pEC50, which is the negative logarithm to base 10 of the agonist molar concentration that produces 50% of the maximal possible effect of that agonist. […] In practice, equiactive concentrations of the agonist in the absence ([A]) and presence ([A’]) of a non-competitive antagonist ([B]) were compared in a double reciprocal plot describing a straight line, and pKB was derived from the equation: pKB = log[(slope—1)/[B]]. […] Maximal effect data were analyzed using the Student’s t-test or a one-way ANOVA followed by Dunnett’s post-hoc test.

[4] = molecular target: T1, human LPA2 receptor; experiment: Calcium mobilization assay in CHOLPA2 cells; settings: CHOLPA2, calcium mobilization; for Effect per se / Shift of the concentration–response curve to LPA: 1 µM; for Effect per se: data not shown; for Shift of the concentration–response curve to LPA: antagonism protocol
[5] = molecular target: T2, human LPA1 receptor; experiment: Calcium mobilization assay in CHOLPA1 cells; settings: for Effect per se: 1 µM, data not shown
[6] = molecular target: LPA2 receptor; design: method as in Beck et al., 2008; settings: ref Beck et al., 2008, cited from earlier work
[7] = molecular target: LPA1 receptor; settings: 2017, cited from earlier work
[8] = system: CHO wild-type cells; experiment: Calcium mobilization assay in CHO wild-type cells (control); assay type: cell-based; settings: micromolar concentration
Experimental: Cells were seeded at a density of 50,000 cells/well in 100 μL into black, clear-bottom 96-well plates. The following day, cells were incubated with medium supplemented with 2.5 mM probenecid, 3 μM of the calcium-sensitive fluorescent dye Fluo-4 AM, and 0.01% pluronic acid for 30 min at 37°C. After the incubation period, the loading solution was aspirated, and 100 μL of HBSS supplemented with 20 mM HEPES, 2.5 mM probenecid, and 500 μM Brilliant Black was added. Serial dilutions of compounds were carried out in HBSS/HEPES (20 mM) buffer containing 0.01% BSA. Cell culture and drug plates were placed into a fluorimetric imaging plate reader (FlexStation II, Molecular Devices, Sunnyvale, CA), and fluorescence changes were measured. Online additions were carried out with a volume of 50 μL/well. […] To facilitate drug diffusion into the wells, the experiments were performed at 37°C, and three cycles of mixing (25 μL from each well moved up and down three times) were performed immediately after injection of antagonists into the wells. Agonist effects were expressed in the form of maximum percentage change over baseline fluorescence. Baseline fluorescence was measured in wells treated with vehicle.

[9] = design: method as in Allanore et al., 2018; settings: phase II, diffuse cutaneous systemic sclerosis; ref Allanore et al., 2018; cited from earlier work
[10] = CHOLPA1, calcium mobilization, #inactive at 1 μM
[11] = CHOLPA2, DMR, negative DMR signal, peak, up to 10 µM (compound 35 up to 1 µM), °inactive at 10 μM
[12] = CHOLPA1, DMR, peak, up to 10 µM (compound 35 up to 1 µM), °inactive at 10 μM

SMILES: Nc1ncnc2c1ncn2[C@@H]1O[C@H](COP(=O)(O)OP(=O)(O)OP(=O)(O)O)[C@@H](O)[C@H]1O [ATP]
DMR response ([1]; ATP 100 μM): 96 ± 13 pm
DMR response ([2]; ATP 100 μM): 156 ± 11 pm
DMR response ([3]; ATP 100 μM): 84 ± 6 pm

SMILES: CCCCCCCC/C=C\CCCCCCCC(=O)OC[C@@H](O)COP(=O)([O-])O.[Na+] [LPA, Oleoyl-L-α-lysophosphatidic acid sodium salt]
pEC50 ([7]; native LPA1 receptor, ref Sattikar et al.): ~7.5
pEC50 ([7]; recombinant LPA1 receptor, ref Swaney et al., 2011, Shimizu and Nakayama): ~7.5
pEC50 (stimulant effect of LPA) ([5]; CHOLPA1, calcium mobilization, LPA 0.01 nM–10 µM): 7.25 (7.19–7.31)
Effect in CHO wild-type cells ([2]; DMR, micromolar concentration): elicited some stimulant effects
Effect in CHO wild-type cells [8]: elicited some stimulant effects
pEC50 (stimulant effect of LPA) ([3]; CHOLPA1, DMR, peak, LPA 0.01 nM–10 µM): 7.16 (6.89–7.43)

SMILES: COc1ccc(C(=O)NC2(C(=O)O)Cc3ccccc3C2)cc1OCCc1cccc(C)c1 [SAR-100842]
Improvement in the modified Rodnan skin thickness score [9]: not statistically significant
Tolerability [9]: well-tolerated

Now from value to compound, other results behind:

Effect per se [4]: did not produce any effect per se
Agonism Emax ([4]; #inactive at 1 μM): Inactive^#
Agonism pEC50 ([4]; #inactive at 1 μM): Inactive^#
Kb ([5]; Antagonism pKB/pA2, CHOLPA1, calcium mobilization, LPA curve in absence and presence of 1 µM compound): > 1000 nM
Effect per se ([5]; CHOLPA1, calcium mobilization): did not produce any effect per se
Agonism Emax [5, 10]: Inactive^#
Agonism pEC50 [5, 10]: Inactive^#
Agonism Emax [1, 11]: Crc incomplete
Agonism pEC50 [1, 11]: Crc incomplete
DMR response ([1]; compound 35 1 μM): −88 ± 6 pm
Agonism pEC50 ([3]; CHOLPA1, DMR, negative DMR signal (inverse agonism), peak, up to 10 µM (compound 35 up to 1 µM), °inactive at 10 μM): Crc incomplete
Agonism Emax [3, 12]: Crc incomplete
DMR response ([3]; compound 35 1 μM): −101 ± 10 pm
SMILES: Cc1csc2c(N[C@@H](C)CN3CCN(S(=O)(=O)c4ccc(Cl)c(Cl)c4)CC3)ncnc12 [Compound 35]
Shift of the concentration–response curve to LPA [4]: shifted the concentration–response curve to LPA to the right
Shift of the concentration–response curve to LPA ([5]; CHOLPA1, calcium mobilization, antagonism protocol (compound 35, compound 20 at 1 µM)): did not shift the concentration–response curve to LPA to the right
Shift of the concentration–response curve to LPA ([1]; CHOLPA2, DMR): shifted the concentration–response curve to LPA to the right
DMR effect per se ([1]; CHOLPA2, DMR): inactive per se, or slightly active only at the higher concentration tested
DMR response ([2]; compound 35 1 μM): −27 ± 13 pm
pIC50 ([6]; inhibition of stimulant activity of LPA on Ca2+ mobilization, LPA2-transfected cells): 7.77
Selectivity for LPA2 vs. LPA1 and LPA3 receptors [6]: highly selective
Shift of the concentration–response curve to LPA ([3]; CHOLPA1, DMR): did not shift the concentration–response curve to LPA to the right
DMR effect per se ([3]; CHOLPA1, DMR, up to highest concentration tested (10 μM; compound 35 1 µM)): only a slight negative signal at the highest concentration tested

Effect per se [4]: inactive
Effect per se ([5]; CHOLPA1, calcium mobilization): inactive
Kb ([5]; pKB, CHOLPA1, calcium mobilization, Gaddum method, 1 µM antagonist): 57.5 nM
DMR effect per se ([1]; CHOLPA2, DMR): inactive
DMR response ([1]; compound 10 μM, mean ± s.e.m.): −55 ± 19 pm
EC50 ([3]; Agonism pEC50, CHOLPA1, DMR, negative DMR signal (inverse agonism), peak, up to 10 µM (compound 35 up to 1 µM), °inactive at 10 μM): 309 nM
Agonism Emax [3, 12]: −68 ± 13 pm
DMR response ([3]; compound 10 μM, mean ± s.e.m.): −78 ± 18 pm
SMILES: Cc1noc(-c2ccc(O[C@H]3CC[C@@H](C(=O)O)CC3)cc2)c1NC(=O)O[C@H](C)c1ccccc1Cl [Compound CHI]
Shift of the concentration–response curve to LPA [4]: did not shift the concentration–response curve to LPA
Shift of the concentration–response curve to LPA ([1]; CHOLPA2, DMR): did not shift the concentration–response curve to LPA
DMR response ([2]; compound 10 μM, mean ± s.e.m.): −4 ± 22 pm
DMR effect per se ([2]; CHO wild-type cells, 10 µM): inactive
Shift of the concentration–response curve to LPA ([3]; CHOLPA1, DMR): active as an LPA1 antagonist only in calcium mobilization experiments

From PMC10682101, “In vitro pharmacological characterization of standard and new lysophosphatidic acid receptor antagonists using dynamic mass redistribution assay” (Frontiers in Pharmacology, 2023)
